Experimental data published in patent US20160045531A1, “COMBINATION THERAPY FOR TREATING CANCER” (EPIZYME, INC., priority 2014, published 2016).

Key:
[1] = test system: MV4-11 (MLL-AF4) cell line; assay: Combination proliferation study with Compound A2 (Example 1), MV4-11; format: cell-based, human; settings: 7 Day Cotreatment; Chou-Talalay CI
Description: (§1) The acute myelogenous leukemia cell lines MV4-11 (MLL-AF4) and MOLM-13 (MLL-AF9) were obtained from American Type Culture Collection (ATCC; Rockville, Md.) and Deutsche Sammlung von Mikroorganismen and Zellkulturen (DSMZ; Braunschweig, Germany) respectively. […] Further, strong synergism is achieved when the CI value falls below 0.3.

[2] = test system: MOLM-13 (MLL-AF9) cell line; assay: Combination proliferation study with Compound A2 (Example 1), MOLM-13; format: cell-based, human; settings: 7 Day Cotreatment; Chou-Talalay CI
Description: as §1

[3] = test system: MOLM-13 (MLL-AF9); assay: Proliferation assay and calculation of synergism (Example 5), MOLM-13; format: cell-based, human; settings: for Combination with Compound A2, MOLM-13 (MLL-AF9): 7 Day Cotreatment Model, Chou-Talalay CI; for Combination with Compound A2, pre-treatment model with washout, MOLM-13: Compound A2 washed out prior to the addition of the SOC agent; for Combination with Compound A2, pre-treatment model, MOLM-13: no Compound A2 washout
Experimental: (§4) MV4-11 cells were maintained in IMDM supplemented with 10% fetal bovine serum. […] They were cultured in flasks or plates in a humidified 5% CO2 atmosphere.
(§5) Proliferation studies were performed using MOLM-13, MV4-11 and SKM-1 cell lines in vitro to evaluate the cancer cell killing effect of a combination of two agents together on cell growth. Initial proliferation studies were performed to determine the IC50 values of a given compound in each cell line. The cell counts were measured by ATP quantitation using the Promega Cell Titer Glo kit and luminescence values correspond to the amount of ATP in a given well.
(§6) These studies were performed to evaluate both the combinatorial effect of compounds on cell killing and the durability of the effect by washing out one of the agents.
(§7) Compounds evaluated for synergy in the co-treatment phase were tested in a range which was bracketed around the IC50's. The compounds were plated to a 96 well plate in a matrix format which includes increasing concentrations of each drug in the combination in a constant ratio, in addition to the effect of each compound alone in the study. […] Maximum and minimum inhibition (DMSO alone) controls were used in each plate to calculate fraction affected (Fa) of a test well. DMSO concentration was kept at 0.1% v/v. The drug combination analysis was performed utilizing the Chou-Talalay method. Synergy was determined using the software package Calcusyn by Biosoft. The combination index (CI) is the term used to describe the level of synergy or antagonism in a given test system. A combination index less than one indicates synergy, and a CI greater than one indicates antagonism.
(§8) The drug combination analysis was performed using the Chou-Talalay method. Graphs representing values of combination index (CI) versus Fractional effect (Fa) known as Fa-CI plots were generated and synergy was evaluated. Drug synergy was statistically defined by CI values less than 1, antagonism by CI>1 and additive effect by CI equal to 1.

[4] = test system: MV4-11 (MLL-AF4); assay: Proliferation assay and calculation of synergism (Example 5), MV4-11; format: cell-based, human; settings: for Combination with Compound A2, MV4-11 (MLL-AF4): 7 Day Cotreatment Model, Chou-Talalay CI; for Combination with Compound A2, pre-treatment model with washout, MV4-11: Compound A2 washed out prior to the addition of the SOC agent; for Combination with Compound A2, pre-treatment model, MV4-11: no Compound A2 washout
Experimental: as §4, §5, §6, §7, §8

[5] = test system: Molm-13 (MLL-AF9 expressing acute myeloid leukemia); assay: Combination proliferation study with Compound A2 (Examples 2/3), MOLM-13; format: cell-based, human; settings: for Combination studies with Compound A2, MOLM-13 MLL-AF9: in combination with Compound A2, Chou-Talalay CI
Experimental: (§2) The HP-D300 digital dispenser (Tecan) was used to dispense compounds in a combinatorial matrix. […] Cell viability was measured via ATP content using CellTiter-Glo® (Promega).
(§3) Viability was determined using CellTiter-Glo® (Promega).

[6] = test system: SKM-1 cells; assay: Proliferation assay and calculation of synergism (Example 5), SKM-1; settings: combination with Compound A2
Description: The acute myelogenous leukemia cell line MV4-11 (MLL-AF4) (CRL-9591) was obtained from American Type Culture Collection (ATCC), Manassas, Va. and both MOLM-13 (MLL-AF9) (ACC 554) and SKM-1 (ACC 547) cells were obtained from Leibniz Institute DSMZ-German Collection of Microorganisms and Cell Cultures, Braunschweig, Germany. MV4-11 cells were maintained in IMDM supplemented with 10% fetal bovine serum. MOLM-13 and SKM-1 cells were maintained in Roswell Park Memorial Institute medium (RPMI) supplemented with 10% fetal bovine serum. They were cultured in flasks or plates in a humidified 5% CO2 atmosphere.
as §5, §6, §7, §8

[7] = test system: SKM-1 (non-MLL-rearranged AML); assay: Combination proliferation study with Compound A2 (Examples 2/3), SKM-1; format: cell-based, human; settings: in combination with Compound A2
Experimental: as §2, §3

[8] = test system: MV4-11 (MLL-AF4 expressing acute biphenotypic leukemia cell line); assay: Combination proliferation study with Compound A2 (Examples 2/3), MV4-11; format: cell-based, human; settings: in combination with Compound A2; Chou-Talalay CI
Experimental: as §2, §3

## CC1(C)CCC(c2ccc(Cl)cc2)=C(CN2CCN(c3ccc(C(=O)NS(=O)(=O)c4ccc(N[C@H](CCN5CCOCC5)CSc5ccccc5)c(S(=O)(=O)C(F)(F)F)c4)cc3)CC2)C1 [Navitoclax]
[1]
  Combination effect with Compound A2 on proliferation, MV4-11: synergy
[2]
  Combination effect with Compound A2 on proliferation, MOLM-13: synergy

## CN(Cc1cnc2nc(N)nc(N)c2n1)c1ccc(C(=O)N[C@@H](CCC(=O)O)C(=O)O)cc1 [Methotrexate, methotrexate]
[3]
  Combination with Compound A2, MOLM-13 (MLL-AF9): Antagonistic/Additive
[4]
  Combination with Compound A2, MV4-11 (MLL-AF4): Additive (additive effect by CI equal to 1)

## Nc1ccn([C@@H]2O[C@H](CO)[C@@H](O)[C@@H]2O)c(=O)n1 [cytarabine]
[5]; Molm-13, Compound A2 removed at day 7 prior to cytarabine
  Combination with Compound A2, Compound A2 removed at day 7: durable combination benefit
[5]
  Combination studies with Compound A2, MOLM-13 MLL-AF9: acts synergistically
[6]
  Effect of Compound A2 on the antiproliferative activity of the second agent in SKM-1: did not affect the antiproliferative activity
[7]
  Combination studies with Compound A2, SKM-1 AML: Non-rearranged: did not act synergistically
[3]
  Combination with Compound A2, pre-treatment model with washout, MOLM-13: synergistic anti-proliferative activity was maintained
  Combination with Compound A2, pre-treatment model, MOLM-13: synergistic antiproliferative activity
[8]
  Combination studies with Compound A2, MV4-11 MLL-AF4: acts synergistically
[4]
  Combination with Compound A2, pre-treatment model with washout, MV4-11: synergistic anti-proliferative activity was maintained
  Combination with Compound A2, pre-treatment model, MV4-11: synergistic antiproliferative activity

## Nc1ncn([C@H]2C[C@H](O)[C@@H](CO)O2)c(=O)n1 [Decitabine, decitabine]
[7]
  Combination studies with Compound A2, SKM-1 AML: Non-rearranged: No Combination

## Nc1ncn([C@@H]2O[C@H](CO)[C@@H](O)[C@H]2O)c(=O)n1 [azacytidine, Azacytidine]
[6]
  Effect of Compound A2 on the antiproliferative activity of the second agent in SKM-1: no impact on the antiproliferative activity
[3]
  Combination with Compound A2, MOLM-13 (MLL-AF9): synergistic anti-proliferative activity
[4]
  Combination with Compound A2, MV4-11 (MLL-AF4): synergistic anti-proliferative activity

## CC(C)(C)c1cc(NC(=O)Nc2ccc(-c3cn4c(n3)sc3cc(OCCN5CCOCC5)ccc34)cc2)no1 [Quizartinib]
[1]
  Combination effect with Compound A2 on proliferation, MV4-11: synergy

## Cc1[nH]c2ccccc2c1CCNCc1ccc(/C=C/C(=O)NO)cc1 [Panobinostat]
[4]
  Combination with Compound A2, MV4-11 (MLL-AF4): Antagonistic (antagonism by CI>1)

## Nc1ncn([C@@H]2O[C@H](CO)[C@@H](O)[C@H]2O)c(=O)n1 [Vidaza]
[1]
  Combination effect with Compound A2 on proliferation, MV4-11: Synergy (A combination index less than one indicates synergy)

## COc1cccc2c1C(=O)c1c(O)c3c(c(O)c1C2=O)C[C@@](O)(C(C)=O)C[C@@H]3O[C@H]1C[C@H](N)[C@H](O)[C@H](C)O1 [Daunorubicin, daunorubicin]
[5]
  Combination studies with Compound A2, MOLM-13 MLL-AF9: acts synergistically
[6]
  Effect of Compound A2 on the antiproliferative activity of the second agent in SKM-1: did not affect the antiproliferative activity
[1]
  Combination effect with Compound A2 on proliferation, MV4-11: Synergy (A combination index less than one indicates synergy)
[7]
  Combination studies with Compound A2, SKM-1 AML: Non-rearranged: No Combination
[7]; listed as daunorubicin
  Combination studies with Compound A2, SKM-1 AML: Non-rearranged: did not act synergistically
[3]
  Combination with Compound A2, pre-treatment model with washout, MOLM-13: synergistic anti-proliferative activity was maintained
  Combination with Compound A2, pre-treatment model, MOLM-13: synergistic antiproliferative activity
[8]
  Combination studies with Compound A2, MV4-11 MLL-AF4: acts synergistically
[4]
  Combination with Compound A2, pre-treatment model with washout, MV4-11: synergistic anti-proliferative activity was maintained
  Combination with Compound A2, pre-treatment model, MV4-11: synergistic antiproliferative activity

## Nc1cccc2c1CN(C1CCC(=O)NC1=O)C2=O (stereo not drawn) [Lenalidomide, lenalidomide]
[3]
  Combination with Compound A2, MOLM-13 (MLL-AF9): Combination Benefit
[4]
  Combination with Compound A2, MV4-11 (MLL-AF4): Combination Benefit

## CC[C@]1(O)C[C@H]2CN(CCc3c([nH]c4ccccc34)[C@@](C(=O)OC)(c3cc4c(cc3OC)N(C=O)[C@H]3[C@@](O)(C(=O)OC)[C@H](OC(C)=O)[C@]5(CC)C=CCN6CC[C@]43[C@@H]65)C2)C1 [Vincristine, vincristine]
[3]
  Combination with Compound A2, MOLM-13 (MLL-AF9): Additive (additive effect by CI equal to 1)
[4]
  Combination with Compound A2, MV4-11 (MLL-AF4): Additive (additive effect by CI equal to 1)

## O=C(CCCCCCC(=O)Nc1ccccc1)NO [Vorinostat]
[3]
  Combination with Compound A2, MOLM-13 (MLL-AF9): Additive/Synergy
[4]
  Combination with Compound A2, MV4-11 (MLL-AF4): Antagonistic (antagonism by CI>1)

## N[C@@H]1C[C@H]1c1ccccc1 (racemic) [Tranylcypromine]
[1]
  Combination effect with Compound A2 on proliferation, MV4-11: synergy
[2]
  Combination effect with Compound A2 on proliferation, MOLM-13: synergy

## COc1cc2c(cc1-c1c(C)noc1C)ncc1[nH]c(=O)n([C@H](C)c3ccccn3)c12 [IBET-151]
[1]
  Combination effect with Compound A2 on proliferation, MV4-11: Synergy (A combination index less than one indicates synergy)
[7]
  Combination studies with Compound A2, SKM-1 AML: Non-rearranged: IC50 not achieved

## CC(C)C[C@H](NC(=O)[C@H](Cc1ccccc1)NC(=O)c1cnccn1)B(O)O [Velcade, bortezomib]
[3]
  Combination with Compound A2, MOLM-13 (MLL-AF9): Combination Benefit
[4]
  Combination with Compound A2, MV4-11 (MLL-AF4): Combination Benefit

## O=C1c2c(O)ccc(O)c2C(=O)c2c(NCCNCCO)ccc(NCCNCCO)c21 [Mitoxantrone]
[1]
  Combination effect with Compound A2 on proliferation, MV4-11: Synergy (A combination index less than one indicates synergy)

## C[C@]12C=CC(=O)C=C1CC[C@@H]1[C@@H]2[C@@H](O)C[C@@]2(C)[C@H]1CC[C@]2(O)C(=O)CO [Prednisolone, prednisolone]
[3]
  Combination with Compound A2, MOLM-13 (MLL-AF9): Antagonistic (antagonism by CI>1)
[4]
  Combination with Compound A2, MV4-11 (MLL-AF4): Antagonistic (antagonism by CI>1)

## Cc1sc2c(c1C)C(c1ccc(Cl)cc1)=N[C@@H](CC(=O)OC(C)(C)C)c1nnc(C)n1-2 [JQ1]
[3]
  Combination with Compound A2, MOLM-13 (MLL-AF9): Additive (additive effect by CI equal to 1)
[4]
  Combination with Compound A2, MV4-11 (MLL-AF4): Additive (additive effect by CI equal to 1)

## Nc1ncn([C@@H]2O[C@H](CO)[C@@H](O)[C@H]2O)c(=O)n1 [Azacitidine, azacitidine]
[7]
  Combination studies with Compound A2, SKM-1 AML: Non-rearranged: No Combination
